A short description of this data set: Absorbance scan by spectrophotometer. In kind it is physicochemical. How it is done:
Absorbance wavelengths of compound 1 were scanned using a Beckman DU®800 spectrophotometer.
In order to confirm whether compound 1 absorbs at UVA or UVB wavelengths, its ability to absorb SUV light between […] was examined. […] In addition, an anchorage-independent growth assay was performed to assess the effect of compound 1 on cell transformation. […] Similarly, cell proliferation was determined by a crystal violet staining assay.

As to `O=C1Nc2ccc(C34CC5CC(CC(C5)C3)C4)cc2C1=NO` [compound 1, 5-(adamantan-1-yl)-3-(hydroxyimino)indolin-2-one], the “absorbance of UVA or UVB” value is given as “did not show significant absorbance of UVA or UVB”. Where the note is “scanned between 250 and 320 nm”, the peak absorption is 259 nm and the “wavelength range of main light absorption” value is reported as 250-275 nm.
